Data reported in patent publication US6602515B2, “Photo stable organic sunscreen compounds with antioxidant properties and compositions obtained therefrom” (EM Industries, priority 2001, dated 2003).

Experiments:
physchem = type: physicochemical
Description: Individual solutions of selected sunscreen compounds (2/1, 2/4, 2/5, 2/7 and 2/8) with Avobenzone were as follows. Each sunscreen compound was dissolved in 70% ethanol/30% H2O solution containing roughly an equal molar amount of Avobenzone. A similar solution containing Di-2-ethylhexyl-2,6-napthalene dicarboxylic acid (DENDA) and Avobenzone was also prepared. Each solution was then illuminated in the solar simulator as configured above for the photostability tests and aliquots of each solution were removed at 30-minute time intervals. These aliquots were injected into an HPLC and the loss of Avobenzone was followed with illumination time. The high performance liquid chromatograph (HPLC) used for all experiments reported therein incorporated a Spectra-Physics model P-200 pump with an Applied Biosystems model 785A UV-Visible detector with a Rheodyne manual injector incorporating a […] sample loop and a 150×4.6 mm reversed-phase C18 column (Alltech). All analyses were carried out under isocratic elution conditions using CH3OH/H2O mixtures for the mobile phase at a flow rate of […] per minute. It was necessary to employ HPLC separation of Avobenzone from each of the sunscreen compounds to quantify Avobenzone due to the absorption spectra overlap with some of these compounds.

[1] = Absorbance and molar absorptivity of sunscreen compounds; type: physicochemical; conditions: for ελMax / λMax: 70% ethanol/30% H2O solution; for molar absorption compared to Avobenzone: 70% ethanol and 30% isopropyl myristate
Description: Each exploratory sunscreen compound was dissolved in 70% ethanol/30% isopropyl myristate and/or 70% ethanol/30% water and the UV visible absorption spectrum measured with a Shimadza UV 2101-double beam spectrophotometer using the solvent as reference. A similar solution of Octocrylene was prepared and the UV-visible absorption spectrum measured. Each solution was then illuminated for two hours in the solar simulator. After illumination, the absorption spectrum was again measured each solution. […]

[2] = Photostability, 2 hours illumination in Xe arc solar simulator, UV-visible absorption spectrum; type: physicochemical; conditions: for photostability compared to Octocrylene: 2 hours of illumination in the solar simulator
Source text: The solar simulator used for illumination of the samples in the experiments was constructed incorporating a 1 kw Xe arc lamp, optical bench and sample illumination chamber. The lamp output was filtered through a water filter with a course window to remove most of the infrared radiation and optical filters to remove wavelengths below 290 nm. The output of the illumination system was focused onto the face of a 1 cm quartz Cuvette that was thermally equilibrated with a constant temperature water bath at 25 ° C. A magnetic stir was mounted under the Cuvette so that the samples could be stirred while being illuminated. An electric shutter was controlled by a dark room timer to provide precise control of illumination times. The solar simulator was constructed to provide illumination that closely matches terrestrial sunlight. The solar simulator delivered roughly 250 J/cm^2 over a 2-hour period of illumination in a 290-490 nm range. This irradiance was determined using two nitrobenzaldehyde chemical actinometry. The irradiance is much higher than other solar simulator systems which typically illuminate a large area in order to illuminate many samples simultaneously rather than being focused down to a very small area. Each exploratory sunscreen compound was dissolved in 70% ethanol/30% isopropyl myristate and/or 70% ethanol/30% water and the UV visible absorption spectrum measured with a Shimadza UV 2101-double beam spectrophotometer using the solvent as reference. A similar solution of Octocrylene was prepared and the UV-visible absorption spectrum measured. Each solution was then illuminated for two hours in the solar simulator. After illumination, the absorption spectrum was again measured each solution.

[3] = DPPH test method (antioxidant property, % reducing activity); type: biochemical; conditions: 20 minutes, 517 nm
Description: A DPPH concentrate (2.5×) of 25 mg of 1,1-Diphenyl-2-Picyrl-Hydrazyl ACS# 1898-66-4 (Sigma #D-9132, lot 99H3601) dissolved in 250 mL ethanol (USP), is prepared fresh on the measurement date. A DPPH working solution is then prepared by diluting 100 mL of this concentrate to a final volume of 250 mL ([…]). A blank 13×100 mm borosilicate glass screw top tube of ethanol (USP) is used to zero the spectrometer (Milton Roy, Spectronic 20+) at 517 nm and a control tube of DPPH working solution is measured under identical conditions, and taken as 0% activity. Aliquots of the 0.25% & 0.5% (RT & 45° C.) test solution are added to tubes followed by the rapid addition of 4 mL DPPH working solution then rapidly capped and mixed. After 20 minutes, the absorbance of each sample is read at 517 nm.
The percent reducing activity (% RA) is calculated using the following equation:
% Reduction Activity=100 A(0)-A(20)/A(0)
Where A(0) is the absorbance value of the DPPH working solution at 517 nm zeroed against an ethanol blank and A(20) is the absorbance at 517 nm, 20 minutes after combining the antioxidant with the DPPH working solution.
The concentration of antioxidant (mg/ml) in the final assay mixture is calculated based on the dilution of respective aliquots of each compound in the final assay volume and % RA tabulated and plotted as percent activity at each concentration in the dilution series.

[4] = after 2 hours of illumination in the solar simulator
[5] = 2.500 mg/ml in final assay mixture
[6] = 0.028 mg/ml in final assay mixture
[7] = 0.056 mg/ml in final assay mixture
[8] = 0.139 mg/ml in final assay mixture
[9] = 0.278 mg/ml in final assay mixture

Compound	stabilization of Avobenzone, compared with DENDA (physchem)	ελMax [1] [M⁻¹ cm⁻¹]	λMax [1] [nm]	photostability compared to Octocrylene [2]	photostability (retention of absorptivity), in words [2, 4]	% Reducing Activity [3, 5] [%]	% Reducing Activity [3, 6] [%]	% Reducing Activity [3, 7] [%]	% Reducing Activity [3, 8] [%]	% Reducing Activity [3, 9] [%]	molar absorption compared to Avobenzone [1]	stability compared to Avobenzone [2]	loss of absorbance [2, 4] [%]	absorption after illumination relative to the initial value ([2]; 2 hour period of illumination, not precise)	half-life (physchem) [h]
CCOC(=O)C(=Cc1cc(OC)c(OC)c(OC)c1)C(=O)OCC [2/1, diethyl-3,4,5-trimethoxy benzylidene malonate, reference compound]	appear to stabilize Avobenzone as effectively as DENDA	20000	313	comparable photo stabilities to Octocrylene	retain most of their absorptivity	0.0	–	–	–	–	–	–	–	–	–
CCOC(=O)C(C#N)=Cc1cc(OC)c(OC)c(OC)c1 [2/2, ethyl-alpha-cyano-3,4,5-trimethoxy cinnamate, reference compound]	–	–	–	–	–	3	–	–	–	–	–	–	–	–	–
CCOC(=O)C(C#N)=Cc1cc(OC)c(O)c(OC)c1 [2/3, ethyl-alpha-cyano-3,5-dimethoxy-4-hydroxy cinnamate]	–	–	–	–	–	25.40	5.2	8.4	11.3	15.5	–	–	–	–	–
CCOC(=O)C(=Cc1cc(OC)c(O)c(OC)c1)C(=O)OCC [2/4, diethyl-3,5-dimethoxy-4-hydroxy benzylidene malonate]	appear to stabilize Avobenzone as effectively as DENDA	12000	338	comparable photo stabilities to Octocrylene	retain most of their absorptivity	71.70	5.2	12.8	29.51	33.4	lower molar absorption than Avobenzone	appear to be more stable than Avobenzone	–	–	–
CCOC(=O)C(=Cc1cc(OC)c(O)c(OC)c1)C(C)=O [2/5, ethyl-alpha-acetyl-3,5-dimethoxy-4-hydroxy cinnamate]	somewhat less effective than DENDA	19000	348	comparable photo stabilities to Octocrylene	retain most of their absorptivity	–	20.7	31.0	47.3	59.9	lower molar absorption than Avobenzone	appear to be more stable than Avobenzone	–	–	–
CCOC(=O)C(C)=Cc1cc(OC)c(O)c(OC)c1 [2/7, ethyl-alpha-methyl-3,5-dimethoxy-4-hydroxy cinnamate]	–	–	314	–	–	–	46.1	61.2	77.3	85.0	–	–	72	–	–
CCCCC(CC)COC(=O)C(=Cc1cc(OC)c(O)c(OC)c1)C(=O)OCC(CC)CCCC (stereo not shown) [2/8, di(2-ethyl-hexyl)-3,5-dimethoxy-4-hydroxy benzylidene malonate]	appear to stabilize Avobenzone as effectively as DENDA	16000	340	–	–	–	8.5	13.0	23.2	33.7	–	–	–	approximately 82%	–
COc1cc(C=C(C(=O)OCCC(C)C)C(=O)OCCC(C)C)cc(OC)c1O [2/10, di-iso-amyl-3,5-dimethoxy-4-hydroxy benzylidene malonate]	–	–	–	–	–	–	10.2	14.6	22.3	30.1	–	–	–	–	–
COc1ccc(C(=O)CC(=O)c2ccc(C(C)(C)C)cc2)cc1 [Avobenzone, reference compound]	–	25000	360	–	–	–	–	–	–	–	–	–	–	–	~3
CCCCC(CC)COC(=O)c1ccc2cc(C(=O)OCC(CC)CCCC)ccc2c1 (stereo not shown) [DENDA, Di-2-ethylhexyl-2,6-napthalene dicarboxylic acid, reference compound]	Initially the loss of Avobenzone was quite rapid but then seemed to become stable	–	–	–	–	–	–	–	–	–	–	–	–	–	–
CCCCC(CC)COC(=O)C(C#N)=C(c1ccccc1)c1ccccc1 (stereo not shown) [Octocrylene, reference compound]	–	–	–	–	no loss in absorptivity	–	–	–	–	–	–	–	–	–	–
